Values quoted from earlier work in patent US8853187B2, “Composition comprising bisphosphonates for prevention and/or treatment of metabolic diseases of bones, process for preparing such composition and use thereof” (Gador S.A., priority 2001, dated 2014).

Details: ranking within the group of bisphosphonates, in words

solubility relative to other bisphosphonates: most soluble
Structure (SMILES): CN(C)CCC(O)(P(=O)(O)O)P(=O)(O)O [Olpadronate]
